Data from paper PMC10584170, “Machine learning-based phenotypic imaging to characterise the targetable biology of Plasmodium falciparum male gametocytes for the development of transmission-blocking antimalarials” (PLOS Pathogens, 2023).

How the values were obtained:
[1] = test system: P. falciparum male gametocytes; assay: P. falciparum Dual Gamete Formation Assay (PfDGFA), male readout (exflagellation); assay type: cell-based, Plasmodium falciparum NF54; conditions: for Average inhibition male (%): average of replicates; for % inhibition male (individual replicates) R1: replicate R1; for % inhibition male (individual replicates) R4: replicate R4; for % inhibition male (individual replicates) R3: replicate R3; for Activity: hit = >50% inhibition in male or female readout in at least 3 replicates, 0 = no class assigned
Outline: (§1)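 First, day-14 P. falciparum NF54 gametocytes receive compound for 24 h at 37°C in 1% O2/3% CO2. Next, ookinete medium with Cy3 anti-Pfs25 triggers gametogenesis at 28°C and male exflagellation is imaged. Finally, after 24 h in the dark, Cy3-labelled females are imaged.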

[2] = test system: P. falciparum female gametocytes; assay: P. falciparum Dual Gamete Formation Assay (PfDGFA), female readout (Pfs25-positive female gametes); assay type: cell-based, Plasmodium falciparum NF54; conditions: for Average inhibition female (%): average of replicates; for % inhibition female (individual replicates) R1: replicate R1; for % inhibition female (individual replicates) R3: replicate R3; for % inhibition female (individual replicates) R4: replicate R4
Outline: as §1

[3] = PfDGFA at 2µM, 24h preincubation with gametocytes
[4] = PfDGFA at 2µM, 24h preincubation with gametocytes prior to induction of gametogenesis
[5] = PfDGFA at 2µM, 24h preincubation
[6] = 2µM, 24h preincubation with gametocytes prior to induction of gametogenesis
[7] = 2µM, 24h preincubation, hits selected on >50% inhibition in the male readout across replicates
[8] = 2µM, 24h preincubation, hits selected on >50% inhibition in the female readout across replicates
[9] = 2µM, 24h preincubation with gametocytes

SMILES | % inhibition male (individual replicates) R1 [1, 4] | % inhibition male (individual replicates) R3 [1, 4] | % inhibition male (individual replicates) R4 [1, 4] | Average inhibition male (%) [1, 5] | % inhibition female (individual replicates) R1 [2, 4] | % inhibition female (individual replicates) R3 [2, 4] | % inhibition female (individual replicates) R4 [2, 4] | Average inhibition female (%) [2, 5] | Average inhibition male (%) [1, 6] | % inhibition male (individual replicates) R1 [1, 6] | % inhibition male (individual replicates) R3 [1, 6] | % inhibition male (individual replicates) R4 [1, 6] | HitlevelM [1, 7] | Activity [1, 5] | Average inhibition female (%) [2, 6] | % inhibition female (individual replicates) R1 [2, 6] | % inhibition female (individual replicates) R3 [2, 6] | % inhibition female (individual replicates) R4 [2, 6] | HitlevelF [2, 8] | other results
COc1c(OC)c(OC)c2ccccc2c1CNCCCCCCNCc1c(OC)c(OC)c(OC)c2ccccc12.Cl [TCMDC-137827] |  |  |  |  |  |  |  |  |  |  |  |  |  |  |  |  |  |  |  | Average inhibition male (%) [1, 3]: 67.6%; % inhibition male (individual replicates) R1 [1, 3]: 64.0%; % inhibition male (individual replicates) R4 [1, 3]: 54.3%; HitlevelM ([1]; number of replicates with >50% inhibition in the male readout, 2µM): 3; Average inhibition female (%) [2, 3]: 37.0%; % inhibition female (individual replicates) R1 [2, 3]: 45.3%; % inhibition female (individual replicates) R3 [2, 3]: 25.5%; % inhibition female (individual replicates) R4 [2, 3]: 33.3%; HitlevelF ([2]; number of replicates with >50% inhibition in the female readout, 2µM): 0
CCN(C)C(=O)n1ncc2c3c(N)nc(N)nc3ccc21 [TCMDC-137828] | 33.9% | 38.2% | 21.2% | 34.9% | 0.36% | -2.4% | 3.1% | -0.8% |  |  |  |  |  |  |  |  |  |  |  | 
COc1c(CNCCCCCCNCc2c(OC)c(OC)c3ccccc3c2OC)c(OC)c2ccccc2c1OC.CS(=O)(=O)O [TCMDC-137837] |  |  |  |  |  |  |  |  | 26.0% | 25.5% | 24.6% | 53.4% | 1 | 0 | 13.6% | 13.3% | 14.5% | 16.6% | 0 | 
C#CCOc1ccc2ccccc2c1CNCCCCCCNCc1c(OCC#C)ccc2ccccc12.CS(=O)(=O)O [TCMDC-137838] |  |  |  |  |  |  |  |  |  |  |  |  |  |  |  |  |  |  |  | Average inhibition male (%) [1, 9]: 97.5%; % inhibition male (individual replicates) R1 [1, 9]: 98.4%; % inhibition male (individual replicates) R3 [1, 9]: 92.7%; % inhibition male (individual replicates) R4 [1, 9]: 100.9%; Average inhibition female (%) [2, 9]: 57.5%; % inhibition female (individual replicates) R1 [2, 9]: 37.7%; % inhibition female (individual replicates) R3 [2, 9]: 36.7%; % inhibition female (individual replicates) R4 [2, 9]: 72.5%
COc1cc2ccccc2c(OC)c1CCNCCCCNCCc1c(OC)cc2ccccc2c1OC.CS(=O)(=O)O [TCMDC-137842] |  |  |  |  |  |  |  |  | 40.8% | 35.9% | -0.8% | 68.2% | 2 | 0 | 13.3% | 16.6% | -7.2% | 21.8% | 0 | 
C/C=C/COc1ccc2ccccc2c1CNCCCCCCCCNCc1c(OC/C=C/C)ccc2ccccc12.CS(=O)(=O)O.O [TCMDC-137844] |  |  |  |  |  |  |  |  | 25.4% | 38.1% | 0.24% | 61.8% |  |  | 23.4% | 25.6% | 6.4% | 40.3% |  | HitlevelM ([1]; 2µM, 24h preincubation, number of replicates with >50% inhibition in the male readout): 1; HitlevelF ([2]; 2µM, 24h preincubation, number of replicates with >50% inhibition in the female readout): 0
CC(C)c1cc2c(ccc3nc(N)nc(N)c32)[nH]1 [TCMDC-137847] |  |  |  |  |  |  |  |  | 0.8% | 37.4% | -19.2% | -31.8% | 0 | 0 | 11.1% | 19.6% | 6.0% | 11.3% | 0 | 
CCc1cc2c3c(N)nc(N)nc3ccc2n1CC [TCMDC-137851] |  |  |  |  |  |  |  |  | -13.9% | 35.0% | -28.2% | -58.5% | 0 | 0 | 9.4% | 20.5% | -5.1% | 10.4% | 0 | 
Cl.Nc1nc(N)c2c(ccc3c2cnn3S(=O)(=O)N2CCCC2)n1 [TCMDC-137852] | 28.2% | -12.1% | -13.1% | 5.0% | 0.4% | -21.8% | -7.9% | -7.0% |  |  |  |  |  |  |  |  |  |  |  | 
Cl.Nc1nc(N)c2c(ccc3nn(S(=O)(=O)N4CCCC4)cc32)n1 [TCMDC-137854] | 39.1% | 32.8% | 30.1% | 33.2% | -6.1% | 12.6% | -10.2% | -1.3% |  |  |  |  |  |  |  |  |  |  |  | 
CCCn1cc2c(ccc3nc(N)nc(N)c32)n1 [TCMDC-137858] | 0.8% | -0.8% | -25.8% | 1.4% | 9.1% | -22.2% | 2.7% | -1.2% |  |  |  |  |  |  |  |  |  |  |  | 
CC(C)n1cc2c(ccc3nc(N)nc(N)c32)n1 [TCMDC-137865] | 12.4% | -22.8% | -29.8% | -10.2% | 4.2% | -9.2% | -1.6% | -0.07% |  |  |  |  |  |  |  |  |  |  |  | 
Nc1nc(N)c2c(Cl)c(N3CCOCC3)ccc2n1 [TCMDC-137868] |  |  |  |  |  |  |  |  | -14.2% | 5.7% | -9.7% | -52.5% | 0 | 0 | 8.8% | 9.4% | -3.6% | -2.4% | 0 | 
Cl.Nc1nc(N)c2c(ccc3c2ccn3C2CCCCC2)n1 [TCMDC-137871] |  |  |  |  |  |  |  |  | 11.6% | 19.6% | 1.6% | -3.1% | 0 | 0 | 10.6% | -11.4% | 35.4% | 4.9% | 0 | 
Cc1ccc2c(Cc3cnc(N)nc3N)cc(C)c(N)c2n1.Cl [TCMDC-137878] | 10.8% |  | 0.8% | 15.3% | 1.9% | 4.6% | 2.9% | -0.2% |  |  |  |  |  |  |  |  |  |  |  | 
Cl.N=C(N)NN=Cc1c2ccc(Cl)cc2c(Cl)c2ccc(Cl)cc12 [TCMDC-137884] |  |  |  |  |  |  |  |  |  |  |  |  |  |  |  |  |  |  |  | Average inhibition male (%) [1, 9]: 92.6%; % inhibition male (individual replicates) R1 [1, 9]: 97.0%; % inhibition male (individual replicates) R3 [1, 9]: 80.2%; % inhibition male (individual replicates) R4 [1, 9]: 97.6%; Average inhibition female (%) [2, 9]: 57.1%; % inhibition female (individual replicates) R1 [2, 9]: 33.5%; % inhibition female (individual replicates) R3 [2, 9]: 56.7%; % inhibition female (individual replicates) R4 [2, 9]: 75.9%
O=C(NCc1ccccc1[S+]([O-])c1ccccc1CO)C(F)(F)F (centres unmarked) [TCMDC-137886] | 18.6% | -28.2% | -31.1% | -8.4% | 9.6% | -29.2% | 19.1% | 3.3% |  |  |  |  |  |  |  |  |  |  |  | 
Cl.Nc1ncc(Cc2cc(Cl)c(N)c3ncccc23)c(N)n1 [TCMDC-137889] | 6.1% | -28.8% | -13.1% | -7.9% | 12.6% | -23.8% | 5.5% | -0.8% |  |  |  |  |  |  |  |  |  |  |  | 
